Experimental data from the supplement of paper PMC10307832.

Tests used:
Experiment in all cases: relative viability (nuclei count vs DMSO), 5 days (fraction); higher = more cells survive
Wnt-C59 + OSI-027 = compound: CC1=NC=CC(=C1)C2=CC=C(C=C2)CC(=O)NC3=CC=C(C=C3)C4=CN=CC=C4 [Wnt-C59] + COc1cccc2cc(-c3nc([C@H]4CC[C@H](C(=O)O)CC4)n4ncnc(N)c34)[nH]c12 [OSI-027] (partner 0.5 µM)
Procedure, shortened: (§1)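 A single step with final 0.05% Triton X-100, 1% formaldehyde and 1 ug/ml Hoechst fixed the cells and stained nuclei 5 days after treatment. Lung cancer cell lines in 1536-well plates had been treated by pin tool the day after seeding with one drug alone or a fixed anchor-drug dose plus five library-drug doses (not always all listed) in √10 steps, and nuclei were counted on 4× images. Relative viability is the ratio of nuclei in treated wells to nuclei in vehicle wells, taken as the median of duplicate plates.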

Wnt-C59 + Trametinib = compound: CC1=NC=CC(=C1)C2=CC=C(C=C2)CC(=O)NC3=CC=C(C=C3)C4=CN=CC=C4 [Wnt-C59] + CC(=O)Nc1cccc(-n2c(=O)n(C3CC3)c(=O)c3c(Nc4ccc(I)cc4F)n(C)c(=O)c(C)c32)c1 [Trametinib] (partner 0.02 µM)
Procedure, shortened: as §1

Lapatinib + Phenformin = compound: CS(=O)(=O)CCNCc1ccc(-c2ccc3ncnc(Nc4ccc(OCc5cccc(F)c5)c(Cl)c4)c3c2)o1 [Lapatinib] + N=C(N)NC(=N)NCCc1ccccc1 [Phenformin] (partner 250 µM)
Procedure, shortened: as §1

Wnt-C59 + Luminespib = compound: CC1=NC=CC(=C1)C2=CC=C(C=C2)CC(=O)NC3=CC=C(C=C3)C4=CN=CC=C4 [Wnt-C59] + CCNC(=O)c1noc(-c2cc(C(C)C)c(O)cc2O)c1-c1ccc(CN2CCOCC2)cc1 [Luminespib] (partner 0.01 µM)
Procedure, shortened: as §1

## UMC-11
Wnt-C59 + OSI-027; first compound 0.001 µM
  relative viability: 0.464
Wnt-C59 + OSI-027; first compound 0.01 µM
  relative viability: 0.495
Wnt-C59 + OSI-027; first compound 0.03162 µM
  relative viability: 0.477
Wnt-C59 + OSI-027; first compound 0.1 µM
  relative viability: 0.462
Wnt-C59 + Trametinib; first compound 0.001 µM
  relative viability: 0.654
Wnt-C59 + Trametinib; first compound 0.01 µM
  relative viability: 0.812
Wnt-C59 + Trametinib; first compound 0.03162 µM
  relative viability: 0.698
Wnt-C59 + Trametinib; first compound 0.1 µM
  relative viability: 0.758
Lapatinib + Phenformin; first compound 0.02 µM
  relative viability: 0.351
Lapatinib + Phenformin; first compound 0.06325 µM
  relative viability: 0.306
Lapatinib + Phenformin; first compound 0.2 µM
  relative viability: 0.297
Lapatinib + Phenformin; first compound 0.6325 µM
  relative viability: 0.321
Lapatinib + Phenformin; first compound 2 µM
  relative viability: 0.298
Wnt-C59 + Luminespib; first compound 0.001 µM
  relative viability: 0.932
Wnt-C59 + Luminespib; first compound 0.01 µM
  relative viability: 1.1
Wnt-C59 + Luminespib; first compound 0.03162 µM
  relative viability: 1.19
Wnt-C59 + Luminespib; first compound 0.1 µM
  relative viability: 0.979
